Test results taken from PubChem BioAssay (NCI).
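Values below derive from 48-hour exposures of cells grown in 96-well plates, with endpoints linearly interpolated between the two concentrations bracketing the appropriate inhibition level. Abbreviation: GI50, concentration required for 50% inhibition of growth. TGI is the concentration that stops growth completely.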

Tests used:
Assay in all cases: growth of human tumour cells (NCI), 48 h
MOLT-4 leukemia = system: MOLT-4 leukemia
SK-OV-3 ovarian = system: SK-OV-3 ovarian
KM12 colon = system: KM12 colon
T-47D breast = system: T-47D breast
M14 melanoma = system: M14 melanoma
HT29 colon = system: HT29 colon
SN12C renal = system: SN12C renal
SW-620 colon = system: SW-620 colon
UACC-62 melanoma = system: UACC-62 melanoma
OVCAR-4 ovarian = system: OVCAR-4 ovarian
SNB-19 CNS = system: SNB-19 CNS
IGROV1 ovarian = system: IGROV1 ovarian
EKVX NSCLC = system: EKVX NSCLC
DU-145 prostate = system: DU-145 prostate
SNB-75 CNS = system: SNB-75 CNS
PC-3 prostate = system: PC-3 prostate
NCI-H460 lung = system: NCI-H460 lung
HCT-116 colon = system: HCT-116 colon
LOX IMVI melanoma = system: LOX IMVI melanoma
ACHN renal = system: ACHN renal
NCI-H226 lung = system: NCI-H226 lung
U251 CNS = system: U251 CNS
RXF 393 renal = system: RXF 393 renal
RPMI-8226 leukemia = system: RPMI-8226 leukemia
SR leukemia = system: SR leukemia
HCC-2998 colon = system: HCC-2998 colon
OVCAR-5 ovarian = system: OVCAR-5 ovarian
NCI-H522 lung = system: NCI-H522 lung
MDA-MB-435 = system: MDA-MB-435
CCRF-CEM leukemia = system: CCRF-CEM leukemia
OVCAR-8 ovarian = system: OVCAR-8 ovarian
MCF7 breast = system: MCF7 breast
HOP-92 NSCLC = system: HOP-92 NSCLC
SF-268 CNS = system: SF-268 CNS
786-0 renal = system: 786-0 renal
TK-10 renal = system: TK-10 renal
HS 578T breast = system: HS 578T breast
K-562 leukemia = system: K-562 leukemia
HL-60(TB) leukemia = system: HL-60(TB) leukemia
NCI/ADR-RES ovarian = system: NCI/ADR-RES ovarian
SK-MEL-28 melanoma = system: SK-MEL-28 melanoma
COLO 205 colon = system: COLO 205 colon
SK-MEL-5 melanoma = system: SK-MEL-5 melanoma
SF-539 CNS = system: SF-539 CNS
HCT-15 colon = system: HCT-15 colon
SK-MEL-2 melanoma = system: SK-MEL-2 melanoma
CAKI-1 renal = system: CAKI-1 renal
A498 renal = system: A498 renal
BT-549 breast = system: BT-549 breast
MALME-3M melanoma = system: MALME-3M melanoma
A549 NSCLC = system: A549 NSCLC
MDA-MB-231 breast = system: MDA-MB-231 breast
UO-31 renal = system: UO-31 renal
SF-295 CNS = system: SF-295 CNS
NCI-H23 lung = system: NCI-H23 lung
OVCAR-3 ovarian = system: OVCAR-3 ovarian
UACC-257 melanoma = system: UACC-257 melanoma
HOP-62 NSCLC = system: HOP-62 NSCLC

## ClCc1ccc(-c2ccc(Cn3cnc4nc(Cl)nc(Cl)c43)cc2)cc1
MOLT-4 leukemia
  GI50: 3.36 µM
  TGI: 10.9 µM
SK-OV-3 ovarian
  GI50: 19.7 µM
  TGI: 33.9 µM
KM12 colon
  GI50: 3.69 µM
  TGI: 12.8 µM
T-47D breast
  GI50: 7.03 µM
  TGI: 49.3 µM
M14 melanoma
  GI50: 18.7 µM
  TGI: 36.8 µM
HT29 colon
  GI50: 3.54 µM
  TGI: 12.4 µM
SN12C renal
  GI50: 3.06 µM
  TGI: 12.3 µM
SW-620 colon
  GI50: 2.22 µM
  TGI: 4.75 µM
UACC-62 melanoma
  GI50: 4.13 µM
  TGI: 14.4 µM
OVCAR-4 ovarian
  GI50: 15 µM
  TGI: 28.3 µM
SNB-19 CNS
  GI50: 4.58 µM
  TGI: 15.2 µM
IGROV1 ovarian
  GI50: 14.3 µM
  TGI: 34.8 µM
EKVX NSCLC
  GI50: 15.9 µM
  TGI: 29.5 µM
DU-145 prostate
  GI50: 2.71 µM
  TGI: 7.6 µM
SNB-75 CNS
  GI50: 4.5 µM
  TGI: 15.2 µM
PC-3 prostate
  GI50: 4.71 µM
  TGI: 16.7 µM
NCI-H460 lung
  GI50: 7.85 µM
  TGI: 24.6 µM
HCT-116 colon
  GI50: 3.85 µM
  TGI: 13.4 µM
LOX IMVI melanoma
  GI50: 1.86 µM
  TGI: 3.3 µM
ACHN renal
  GI50: 5.36 µM
  TGI: 17 µM
NCI-H226 lung
  GI50: 13.8 µM
  TGI: 26.7 µM
U251 CNS
  GI50: 3.82 µM
  TGI: 11.3 µM
RXF 393 renal
  GI50: 2.5 µM
  TGI: 5 µM
RPMI-8226 leukemia
  GI50: 3.81 µM
  TGI: 27.9 µM
SR leukemia
  GI50: 2.39 µM
  TGI: 7.46 µM
HCC-2998 colon
  GI50: 4.63 µM
  TGI: 21.7 µM
OVCAR-5 ovarian
  GI50: 19.6 µM
  TGI: 36 µM
NCI-H522 lung
  GI50: 12 µM
  TGI: 36.4 µM
MDA-MB-435
  GI50: 5.25 µM
  TGI: 20.7 µM
CCRF-CEM leukemia
  GI50: 2.16 µM
  TGI: 4.86 µM
OVCAR-8 ovarian
  GI50: 2.41 µM
  TGI: 6.52 µM
MCF7 breast
  GI50: 3.18 µM
  TGI: 10.8 µM
HOP-92 NSCLC
  GI50: 3.82 µM
  TGI: 8.78 µM
SF-268 CNS
  GI50: 3.6 µM
  TGI: 15.2 µM
786-0 renal
  GI50: 17.1 µM
  TGI: 31.7 µM
TK-10 renal
  GI50: 6.88 µM
  TGI: 20.4 µM
HS 578T breast
  GI50: 5.81 µM
  TGI: 40.7 µM
K-562 leukemia
  GI50: 5.59 µM
  TGI: 44.1 µM
HL-60(TB) leukemia
  GI50: 12.3 µM
  TGI: > 100 µM
NCI/ADR-RES ovarian
  GI50: 3.97 µM
  TGI: 70.4 µM
SK-MEL-28 melanoma
  GI50: 2.38 µM
  TGI: 5.16 µM
COLO 205 colon
  GI50: 4.02 µM
  TGI: 18.2 µM
SK-MEL-5 melanoma
  GI50: 4.55 µM
  TGI: 16.5 µM
SF-539 CNS
  GI50: 2.3 µM
  TGI: 5.06 µM
HCT-15 colon
  GI50: 3.9 µM
  TGI: 13.9 µM
SK-MEL-2 melanoma
  GI50: 7.9 µM
  TGI: 21.2 µM
CAKI-1 renal
  GI50: 2.21 µM
  TGI: 4.99 µM
A498 renal
  GI50: 17.7 µM
  TGI: 32 µM
BT-549 breast
  GI50: 2.72 µM
  TGI: 6.59 µM
MALME-3M melanoma
  GI50: 3.33 µM
  TGI: 7.88 µM
A549 NSCLC
  GI50: 3.53 µM
  TGI: > 100 µM
MDA-MB-231 breast
  GI50: 11.1 µM
  TGI: 23.7 µM
UO-31 renal
  GI50: 16.7 µM
  TGI: 34.1 µM
SF-295 CNS
  GI50: 14.2 µM
  TGI: 30.7 µM
NCI-H23 lung
  GI50: 7.32 µM
  TGI: 24.3 µM
OVCAR-3 ovarian
  GI50: 2.19 µM
  TGI: 4.59 µM
UACC-257 melanoma
  GI50: 3.04 µM
  TGI: 9.88 µM
HOP-62 NSCLC
  GI50: 13.5 µM
  TGI: 48.8 µM
